# Patent US5190924A, “Peptide amides and amide dimers useful as muscle relaxants” (BOC Health Care, Inc., priority 1991, dated 1993)
# Where two headings read alike, the source gives them in different places.
# Key:
# neuromuscular junction [1] = assay type: in vivo; conditions: for ED90 (potency: dose required to depress twitch tension to 10% of control): Table II, anesthetized rabbits, marginal ear vein; for Duration (time from injection until train-of-four recovered to 75%) / HR (% change from pre-drug heart rate) / onset T85% (time from injection until 85% of maximal drug effect) / BP (% change of pre-drug blood pressure): rabbit; for Neuromuscular Junction Blocking Activity (ED90), Rabbit: Table I, rabbit paw twitch
# Source text: In a large series of similar telaxants, the rabbit dose is typically 125% of that in mice. The mechanism of action was also confirmed in this test by observing train-of-four and tetanus fade, post-tetanic potentiation of single twitches and administration of the anticholinesterase drug neostig- mine which reverses the relaxation. Reversibility, rapid onset and short duration are important factors to the anesthesiologist.
# The following is a brief description of the methodologies used in rabbits to describe neuromuscular blocking activity of the subject compounds. A more detailed description of these methods is presented in "Microcomputer Use in Measuring Onset, Duration, and Recovery from Non-Depolarizing Skeletal Muscle Relaxants in Rabbits", P. D. Thut et al, Drug development Research 5:182, 1985.
# Male New Zealand white rabbits weighing between 2.5 and 3.4 kg were anesthetized with pentobarbital (30 mg/kg) and placed on their backs upon a 40° C. water filled temperature regulation pad. Following tracheostomy, the lungs were mechanically ventilated at 28 breaths per minute with room air, using an open system delivering 200 mi/stroke. This ventilation maintained pCO2 at 38 mmHG and pO2 at 85 mmHg. Direct arterial blood pressure was measured from the right common carotid artery. The test compounds were administered through a canula placed in the marginal ear vein. Each foreleg was taped to a cushioned plate held in a femur clamp attached to the spinal board rack. The left centeral digit of each paw was connected to a force displacement transducer for measurement of muscle tension. Nerve stimulation was provided by pairs of pin electrodes placed on both sides of the ulnar nerve at the elbow of both forearms. The right ulnar nerve was stimulated at […] for 0.5 msec duration. The left ulnar nerve was similarly stimulated, every 15 seconds, with addition of interspersed trains-of-four and tetanizing stimuli. The parameters reported in Table II are: potency (ED90), which is the dose required to depress twitch tension to 10% of its control value; onset (T85%), which is the time from injection unit 85% of the maximal drug effect is achieved, duration, which is the time from injection until the train-of-four has recovered to 75%, blood pressure (BP), which is the percentage change of pre-drug blood pressure; and heart rate (HR), which is the percentage change from pre-drug heart rate.
# neuromuscular junction [2] = assay: Mouse inclined screen grip strength test; assay type: in vivo; conditions: mice on 45° inclined screen; dose required to inhibit grip strength
# Procedure: The first step, in mice, establishes a preliminary estimate of the potency and efficacy of the compounds. The animals were placed on a screen, inclined 45° to the horizontal. Effective doses caused the mice to lose their grip and slide down the inclined screen. […]
# [3] = equi-efficacious dose, arterial blood pressure
SMILES,ED90 (potency: dose required to depress twitch tension to 10% of control) (neuromuscular junction [1]),Duration (time from injection until train-of-four recovered to 75%) (neuromuscular junction [1]; equi-efficacious dose),HR (% change from pre-drug heart rate) (neuromuscular junction [1]; equi-efficacious dose),onset T85% (time from injection until 85% of maximal drug effect) (neuromuscular junction [1]; equi-efficacious dose),BP (% change of pre-drug blood pressure) (neuromuscular junction [1]; [3]),"Neuromuscular Junction Blocking Activity (ED90), Mouse (neuromuscular junction [2])","Neuromuscular Junction Blocking Activity (ED90), Rabbit (neuromuscular junction [1])",BP (% change of pre-drug blood pressure) (neuromuscular junction [1]; in vivo),HR (% change from pre-drug heart rate) (neuromuscular junction [1]; in vivo)
CC(=O)O[C@H]1C[C@@H]2CC[C@@H]3[C@H](CC[C@@]4(C)[C@H]3C[C@H]([N+]3(C)CCCCC3)[C@@H]4OC(C)=O)[C@@]2(C)C[C@@H]1[N+]1(C)CCCCC1 [pancuronium],0.02 mg/kg,32.50 min,0.00 % change,147.50 s,2.70 % change,–,–,–,–
"C[N+](C)(C)[C@@H](Cc1ccccc1)C(=O)NCCCCCCCCCCNC(=O)[C@H](Cc1ccccc1)[N+](C)(C)C [Compound C, bis-(N,N,N-trimethyl-L-phenylalanyl) -decane-1,10-diamide]",4.41 mg/kg,17.4 min,-0.80 % change,37.60 s,-40.30 % change,1.259 mg/kg,4.408 mg/kg,–,–
COc1ccc(CC2c3cc(OC)c(OC)cc3CC[N+]2(C)CCC(=O)OCCCCCOC(=O)CC[N+]2(C)CCc3cc(OC)c(OC)cc3C2Cc2ccc(OC)c(OC)c2)cc1OC (stereo not drawn) [atracurium],0.05 mg/kg,14.30 min,–,126.90 s,–,0.631 mg/kg,0.050 mg/kg,-3.40 % change,-1.00 % change
CC(=O)O[C@H]1C[C@@H]2CC[C@@H]3[C@H](CC[C@@]4(C)[C@H]3C[C@H]([N+]3(C)CCCCC3)[C@@H]4OC(C)=O)[C@@]2(C)C[C@@H]1N1CCCCC1 [vecuronium],0.02 mg/kg,16.80 min,-1.90 % change,97.30 s,1.10 % change,0.025 mg/kg,0.020 mg/kg,–,–
"CC(C)CC(NC(=O)C(Cc1ccccc1)NC(=O)C(CC(C)C)[N+](C)(C)C)C(=O)NCCCCCCC[N+](C)(C)C [Compound E, N,N,N-trimethyl-L-leucyl-L-phenylalanyl-L-Leucine-(7-trimethylammonium) heptylamide]",–,–,–,–,–,1.995 mg/kg,–,–,–
"CC(C)CC(NC(=O)C(Cc1ccccc1)[N+](C)(C)C)C(=O)NCC[N+](C)(C)C.O=C([O-])C(F)(F)F.O=C([O-])C(F)(F)F (stereo not drawn) [Compound D, Me3 N^+ -Phe-Leu-NH-(CH2)2 -N^+ Me3 2(CF3 CO2)^=]",31.13 mg/kg,15.00 min,4.60 % change,36.3 s,-28.30 % change,16.000 mg/kg,31.13 mg/kg,–,–
"CC(C)CC(NC(=O)C(Cc1ccccc1)NC(=O)C(CC(C)C)[N+](C)(C)C)C(=O)NCCCCC[N+](C)(C)C.O=C([O-])C(F)(F)F.O=C([O-])C(F)(F)F (stereo not drawn) [Compound B, Me3 N^+ -Leu-Phe-Leu-NH-(CH2)5 -N^+ Me3 2(CF3 CO2)^=]",–,–,–,–,–,3.981 mg/kg,–,–,–
"C[N+](C)(C)C(Cc1ccccc1)C(=O)NCCCCCCNC(=O)C(Cc1ccccc1)[N+](C)(C)C.[I-].[I-] (stereo not drawn) [Compound A, Me3 N^+ -Phe-NH-(CH2)6 -NH-Phe-N^+ Me3 2I^-]",–,–,–,–,–,7.940 mg/kg,–,–,–
